# Source: patent publication US5852004A, “Drug and pharmaceutical composition for the treatment of lesions of the digestive tract” (Societe Valbiofrance, priority 1994, dated 1998)
# Where two headings read alike, the source gives them in different places.
# B1: STBI: trypsin inhibitor originating from soya, from Sigma (protein, UniProt P01070 25-205, looked up)
# Trypsin inhibitor A: DFVLDNEGNPLENGGTYYILSDITAFGGIRAAPTGNERCPLTVVQSRNELDKGIGTIISSPYRIRFIAEGHPLSLKFDSFAVIMLCVGIPTEWSVVEDLPEGPAVKIGENKDAMDGWFRLERVSDDEFNNYKLVFCPQQAEDDKCGDIGISIDHDDGTRRLVVSKNKPLVVQFQKLDKESL
# How the values were obtained:
# [1] = system: colitis induced by acetic acid; test: colitis induced by acetic acid; assay type: in vivo, Sprague Dawley male rats; conditions: for Alteration score: per os twice a day for three days, score 72 hours after acetic acid, mean ± standard error
# Experimental: Groups of 6 Sprague Dawley male rats weighing approximately 200 g are placed in hydric fasting 24 hours before the test. On the day of the test, the animals are anesthetized with pentobarbital (30 mg/kg) by intraperitoneal route. After laparotomy, a colic instillation of 2 ml of 5% acetic acid is performed 2 cm from the caecum. The acetic acid is left in contact for 10 seconds and the colon is then rinsed by 3 ml of saline phosphate buffer (PBS) at pH 7. The wound is then closed. The animals are sacrificed 72 hours later by cervical elongation. The colic alterations are noted on the following scale:
# 2: superficial necrosis of the mucosa
# 4: major necrosis of the mucosa with edema
# A third group receives sucralfate (marketed under the name of ULCAR Pharmaceutical Laboratories Fabre). The supplier's recommended dose is used (500 mg/kg, i.e. 100 mg per rat) administered orally twice a day for three days.
# The mean and the standard error were calculated for each batch of animals. Statistical comparison is performed using White's non parametric test compared to the control.
# [2] = system: FGF; conditions: Tardieu et al. 1992; cited from earlier work
# [3] = system: FGF1; test: protection of FGF1 against thermal degradation; assay type: cell-based; conditions: FIG. 3; 20° C. and 37° C., 1, 7, 15, 30 days
# Experimental: (§1) (a) and 37° C. (b) for 1, 7, 15, 30 days. The measurement of the biological activity presented in abscissa corresponds to the stimulation unit values (ED50) of the incorporation of tritiated thymidine in CCL39 cells.
# [4] = system: 125I-FGF2; test: protection of 125I-FGF2 against proteolytic degradation by trypsin (gel, autoradiography); assay type: biochemical; conditions: FIG. 5B, 37° C.
# Description: The arrangement of the tracks is identical to that presented for the ^125 I-FGF1 in FIG. 5A.
# [5] = biological target: T1, beta TGF (Homo sapiens, UniProt P01137); test: protection of beta TGF against trypsin, read by inhibition of tritiated thymidine incorporation in CCL64 cells; assay type: cell-based; conditions: 37° C. 10 min
# T1 construct: from tissue; host or cells: human blood platelets
# Experimental: In order to measure the capacity of certain CMDBSs to interact with members of the beta TGF family and, by means of this interaction, to protect the beta TGFS, a grading test was devised.
# The beta 1 TFG is prepared from human blood platelets according to a protocol described in numerous publications (for example Growth factors and their receptors, 1992, vol 1 pp 419-472, written by A. Roberts and M. Sporn, edited by A. Roberts and M. Sporn, and published by Springer Verlag Berlin) and is commonly used by persons of ordinary skill in the art. The beta TGF biological activity test used in this example is that of the inhibition of CCL64 cells (from the American Tissue Culture Collection). This inhibition is measured by the ability of the beta TGF to inhibit the incorporation of tritiated thymidine in a dose dependent manner in these CCL64 cells stimulated by the FGF or by fetal calf serum according to the protocol described by Van Zolen in Progress in Growth Factor Research, 1990, 2, pp 131 to 152. Two doses of beta TGF are used, one corresponding to the 50% inhibition capacity of the incorporation of tritiated thymidine (defined as the inhibiting activity unit) and the other corresponding to the 100% inhibition capacity.
# The final volume of the incubated solution is adjusted to 1 ml and incubation is carried out at 37° C. for a varying length of time (10 minutes in the example described (Table 1)).
# 20 μl samples […] are taken from each of the incubation reactions and added to CCL64 cells cultivated in 24-well plates, each well containing one milliliter of culture medium according to the aforementioned protocol described by E. Zohlen. In these conditions, the final concentration of beta TGF per well is 1 ng/ml.
# The incubation mixture contained 50 ng of beta TGF (in 0.1% bovine serum albumin) and trypsin (500 μg). Mesoglycan or sulodexide or dextran sulfate or dextran or sucrase are used at the dose of 5000 μg.
# The beta TGF biological activity is measured as described above after a dilution of 50 times and by using CCL64 cells.
# [6] = system: FGF2; test: protection of FGF2 against thermal degradation; assay type: cell-based; conditions: FIG. 4; 20° C. and 37° C., 1, 7, 15, 30 days
# Experimental: as §1
# [7] = system: FGF 2; test: potentialization of FGF2 biological activity, tritiated thymidine incorporation in CCL39 cells; assay type: cell-based
# Description: (§2) The cells used in this example are CCL39 cells from the American Tissue Culture Collection. The conditions concerning culture and the measurement test of FGF biological activity are the same as those described in the publication by Tardieu and coll. in the Journal of Cellular Physiology, 1992. The FGF growth factors used are the FGF 1 and FGF 2 recombinant forms.
# (§3) In these experiments, the FGF 1 or 2 is used at a dose corresponding to the effective dose (indicated ED50) in order to induce a stimulation of the biological activity of 50% of the dose inducing the maximum stimulation. The biological activity is measured by the ability to induce an increase of the incorporation of tritiated thymidine in the cells according to protocols extensively described in numerous publications such as the previously mentioned publication by Tardieu et coll. and also in French Patent 2 644 066.
# (§4) In addition to this ability to potentialize the biological activity of the FGFs, the HBGFPPs protect the FGFs against thermal degradations and the inactivation induced by the proteolytic action of trypsin (FIGS. 4 and 5). Similarly, these HBGFPPs protect FGF1 and 2 against an inactivation induced by the proteolytic activity of trypsin (FIGS. 5A and 5B).
# [8] = system: FGF; test: semi-quantitative evaluation of FGF protection against trypsin (densitometry of radio-labelled FGF); assay type: biochemical; conditions: FGF + trypsin + polymer; radio-labelled FGF found vs quantity deposited
# Experimental: As described above, a constant quantity of radioactive FGF is incubated under various conditions. After autoradiography of the reaction products, the non degraded quantity of radioactive FGF is quantified by densitometry. The values correspond to the percentage of radio-labelled FGF found compared to the quantity deposited at the start of reaction (Table 5).
# [9] = system: 125I-FGF1; test: protection of 125I-FGF1 against proteolytic degradation by trypsin (gel, autoradiography); assay type: biochemical; conditions: FIG. 5A, 37° C.
# Experimental: Proteolytic digestion was carried out at 37° C. and the samples were separated by 18% polyacrylamide gel electrophoresis. The gels are dried and autoradiographed. The first track contains the 125I-FGF1 on its own.
# [10] = system: FGF 1; test: potentialization of FGF1 biological activity, tritiated thymidine incorporation in CCL39 cells; assay type: cell-based
# Description: as §2, §3, §4
# [11] = system: complement system; conditions: according to Mauzac et al.
# [12] = system: anastomosis of the rectocolic junction
# Experimental: Male Wistar rats (Wi/Wi, Ico, Iffa Credo France), weighing 250 to 300 g are anesthetized with sodic pentobarbital. A subumbilical midline laparotomy is performed over 1.5 cm. The rectocolic junction is individualized and then sectioned with bistoury. […] The anastomosis is carried out according to a termino-terminal mode in a plane by five separate stitches of polyglactine 910 thread, diameter 6/0. The knots are made of 6 loops. Parietal closure is performed in two planes. The rats are divided into two groups of 7 rats. The experiments are conducted in double blind. Samples are taken on the 2nd, 4th and 7th days after the operation. The quality of the healing is studied by measuring the rupture pressure of the anastomosis, in millimeters of mercury. The colon is sectioned 2 cm on either side of the anastomosis, one end being connected to a self-pushing syringe which injects water at a low, constant rate, and the other end being linked to a manometer. Pressure is recorded continuously on a reel of paper. The rupture pressure is determined by analyzing the tracing.
# [13] = system: trypsin; test: enzymatic activity of trypsin on substrate S87
# Experimental: The enzymatic activity of trypsin was measured by spectrophotometric absorption of the transformation product of S 87 versus incubation time.
# [14] = beta TGF 50 ng + polymer 5000 μg + trypsin 500 μg
# [15] = beta TGF 50 ng + polymer 5000 μg, no trypsin
# [16] = 10 μg/ml of sulodexide or 20 μg/ml of heparin, CCL39 cells
# T1 sequence (P01137 279-390 limits assumed): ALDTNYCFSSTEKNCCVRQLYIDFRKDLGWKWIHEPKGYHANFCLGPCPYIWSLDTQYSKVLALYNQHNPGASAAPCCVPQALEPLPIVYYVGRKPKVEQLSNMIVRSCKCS
molecule,measurement,setting,value
sucralfate [reference compound],Alteration score,[1],2.25 ± 0.48
same,effect on the healing of the ulcers,"[1]; rat, in vivo",no significant effect
heparin,protection of FGFs against proteolysis induced by trypsin,[2],provides protection against proteolysis induced by trypsin
same,protective effect against thermal degradation of FGF1,[3],protective effect
same,protective effect against proteolytic degradation of 125I-FGF2,[4],protective effect
same,% inhibiting activity of the incorporation of tritiated thymidine in CCL64 cells,[5]; [14],10%
same,% inhibiting activity of the incorporation of tritiated thymidine in CCL64 cells,[5]; [15],100%
same,protective effect against thermal degradation of FGF2,[6],protective effect
same,ED50 of FGF 2 in the presence of polymer,[7]; [16],0.2 ng/mL
same,potentialization of the biological activity of FGF2,"[7]; FIG. 2B, 20 μg heparin, 10 μg mesoglycan or 10 μg sulodexide",potentialization
same,PROTECTION (in %) of the FGF,[8],100%
same,protective effect against proteolytic degradation of 125I-FGF1,[9],protective effect
same,ED50 of FGF 1 in the presence of polymer,[10]; [16],0.4 ng/mL
same,potentialization of the biological activity of FGF1,"[10]; FIG. 2A, 20 μg heparin, 10 μg mesoglycan or 10 μg sulodexide",potentialization
carboxymethyl dextran benzylamide sulfonate [CMDBS],"anticomplement activity, CH50",[11],1.1 µg
same,"Rupture pressure, mean",[12]; DAY 2,67.28 mm of Hg
same,"Rupture pressure, mean",[12]; DAY 4,144.8 mm of Hg
same,increased resistance vs untreated,[12]; Day 4,about 10%
same,difference between treated and untreated resistances,[12]; Day 7,no longer any difference
same,% inhibiting activity of the incorporation of tritiated thymidine in CCL64 cells,[5]; [14],75%
same,% inhibiting activity of the incorporation of tritiated thymidine in CCL64 cells,[5]; [15],100%
same,inhibiting power on the activity of trypsin,[13],no inhibiting power
same,trypsin activity on S87,[13]; trypsin 10 ug/ml + S87 + 5 μg/ml CMDBS,100
same,trypsin activity on S87,[13]; trypsin + S87 + 50 μg/ml CMDBS,100
same,trypsin activity on S87,[13]; trypsin + S87 + 500 μg/ml CMDBS,100
same,Alteration score,[1],0.70 ± 0.37
same,reduction of the seriousness of the colic lesions,[1]; p≤0.05,about 75%
B1,trypsin activity on S87,[13]; trypsin + S87 + trypsin inhibitor,0
